We go through 9 compounds from patent publication US20240109917A1 (ACTELION PHARMACEUTICALS LTD, priority 2020, published 2024).

Assay [1] deals with Tb-labeled inactive PDGFRβ (Homo sapiens (Human), UniProt P09619). Description: PDGFRβ LanthaScreen Assay. It counts as binding. The settings on record: read-out: PDGFR Lantha IC50. In general terms: In TR-FRET formats the signal depends on donor and acceptor labels being close together.
The next assay addresses VEGFR2, unphosphorylated (Homo sapiens (Human), UniProt P35968). Description: VEGFR ADP GLO Assay. It counts as biochemical. A general note: In ADP-Glo the light output rises with the ADP produced.
Assay [2] concerns the target His6-TEV-PDGFRβ (557-1016) (Homo sapiens (Human), UniProt P09619). Nature of the assay: PDGFRβ HTRF Assay. The settings on record: read-out: PDGFR HTRF IC50. It counts as biochemical. A digest of the protocol:
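Human PDGFRβ (557-1016) pre-incubated with compound for 30 min at RT in pH 7.5 HEPES/MgCl2/EGTA/Brij-35/DTT buffer. Reaction started with ATP and TK-biotin peptide, run 3 h at RT, then quenched with EDTA-containing Eu-cryptate antibody/streptavidin-XL665. HTRF 665/620 nm ratio read after 60 min; percent inhibition relative to DMSO and 10 μM imatinib controls.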

Some results are limits rather than exact numbers.

Chain of His6-TEV-PDGFRβ (557-1016) (P09619 557-1016): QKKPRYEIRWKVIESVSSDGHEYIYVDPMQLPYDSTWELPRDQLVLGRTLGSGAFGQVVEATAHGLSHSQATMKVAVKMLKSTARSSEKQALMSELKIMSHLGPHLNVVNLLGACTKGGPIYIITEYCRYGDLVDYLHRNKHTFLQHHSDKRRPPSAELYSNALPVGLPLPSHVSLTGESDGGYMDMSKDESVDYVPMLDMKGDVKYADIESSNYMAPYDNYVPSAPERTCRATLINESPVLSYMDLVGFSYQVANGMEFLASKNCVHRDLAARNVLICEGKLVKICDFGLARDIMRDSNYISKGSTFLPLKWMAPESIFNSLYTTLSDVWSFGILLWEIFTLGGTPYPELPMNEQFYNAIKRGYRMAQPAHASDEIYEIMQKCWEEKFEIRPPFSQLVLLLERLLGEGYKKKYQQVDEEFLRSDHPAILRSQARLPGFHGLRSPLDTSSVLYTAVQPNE
Chain of VEGFR2, unphosphorylated (P35968 20-1356): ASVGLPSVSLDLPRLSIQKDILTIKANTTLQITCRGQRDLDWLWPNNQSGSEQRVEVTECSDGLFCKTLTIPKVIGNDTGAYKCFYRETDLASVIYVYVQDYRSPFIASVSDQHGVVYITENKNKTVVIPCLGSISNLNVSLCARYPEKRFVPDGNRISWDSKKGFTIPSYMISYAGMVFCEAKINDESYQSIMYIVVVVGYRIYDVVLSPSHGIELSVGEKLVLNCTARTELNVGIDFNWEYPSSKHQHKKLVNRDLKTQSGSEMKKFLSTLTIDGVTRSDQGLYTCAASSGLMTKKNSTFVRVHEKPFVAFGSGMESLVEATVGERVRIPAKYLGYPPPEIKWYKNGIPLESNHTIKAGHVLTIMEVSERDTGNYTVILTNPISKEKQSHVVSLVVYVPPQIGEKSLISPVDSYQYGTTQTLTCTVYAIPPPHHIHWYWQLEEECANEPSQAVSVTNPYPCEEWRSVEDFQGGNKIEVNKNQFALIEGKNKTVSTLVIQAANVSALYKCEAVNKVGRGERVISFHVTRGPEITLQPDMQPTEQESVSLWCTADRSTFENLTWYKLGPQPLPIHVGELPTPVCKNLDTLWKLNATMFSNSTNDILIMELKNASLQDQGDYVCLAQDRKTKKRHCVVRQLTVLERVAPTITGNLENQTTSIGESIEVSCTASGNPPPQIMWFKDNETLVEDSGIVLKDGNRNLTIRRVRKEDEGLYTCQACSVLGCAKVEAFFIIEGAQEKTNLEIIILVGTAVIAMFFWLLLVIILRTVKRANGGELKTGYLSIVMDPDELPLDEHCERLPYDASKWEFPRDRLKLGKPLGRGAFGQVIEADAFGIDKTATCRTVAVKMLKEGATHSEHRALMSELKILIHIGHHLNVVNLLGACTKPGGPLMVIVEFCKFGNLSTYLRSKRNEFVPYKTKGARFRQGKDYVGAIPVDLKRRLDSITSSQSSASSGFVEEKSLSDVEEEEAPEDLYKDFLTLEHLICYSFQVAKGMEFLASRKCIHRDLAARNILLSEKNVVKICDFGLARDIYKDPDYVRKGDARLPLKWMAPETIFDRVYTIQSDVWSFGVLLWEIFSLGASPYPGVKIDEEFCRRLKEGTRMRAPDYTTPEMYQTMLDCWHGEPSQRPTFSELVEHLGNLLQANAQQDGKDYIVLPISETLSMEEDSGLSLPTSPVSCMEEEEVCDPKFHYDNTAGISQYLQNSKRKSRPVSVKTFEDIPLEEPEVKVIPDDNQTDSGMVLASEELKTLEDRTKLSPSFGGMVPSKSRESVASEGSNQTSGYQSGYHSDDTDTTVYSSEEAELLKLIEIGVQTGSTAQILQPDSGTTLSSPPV
Chain of Tb-labeled inactive PDGFRβ (P09619 33-1106): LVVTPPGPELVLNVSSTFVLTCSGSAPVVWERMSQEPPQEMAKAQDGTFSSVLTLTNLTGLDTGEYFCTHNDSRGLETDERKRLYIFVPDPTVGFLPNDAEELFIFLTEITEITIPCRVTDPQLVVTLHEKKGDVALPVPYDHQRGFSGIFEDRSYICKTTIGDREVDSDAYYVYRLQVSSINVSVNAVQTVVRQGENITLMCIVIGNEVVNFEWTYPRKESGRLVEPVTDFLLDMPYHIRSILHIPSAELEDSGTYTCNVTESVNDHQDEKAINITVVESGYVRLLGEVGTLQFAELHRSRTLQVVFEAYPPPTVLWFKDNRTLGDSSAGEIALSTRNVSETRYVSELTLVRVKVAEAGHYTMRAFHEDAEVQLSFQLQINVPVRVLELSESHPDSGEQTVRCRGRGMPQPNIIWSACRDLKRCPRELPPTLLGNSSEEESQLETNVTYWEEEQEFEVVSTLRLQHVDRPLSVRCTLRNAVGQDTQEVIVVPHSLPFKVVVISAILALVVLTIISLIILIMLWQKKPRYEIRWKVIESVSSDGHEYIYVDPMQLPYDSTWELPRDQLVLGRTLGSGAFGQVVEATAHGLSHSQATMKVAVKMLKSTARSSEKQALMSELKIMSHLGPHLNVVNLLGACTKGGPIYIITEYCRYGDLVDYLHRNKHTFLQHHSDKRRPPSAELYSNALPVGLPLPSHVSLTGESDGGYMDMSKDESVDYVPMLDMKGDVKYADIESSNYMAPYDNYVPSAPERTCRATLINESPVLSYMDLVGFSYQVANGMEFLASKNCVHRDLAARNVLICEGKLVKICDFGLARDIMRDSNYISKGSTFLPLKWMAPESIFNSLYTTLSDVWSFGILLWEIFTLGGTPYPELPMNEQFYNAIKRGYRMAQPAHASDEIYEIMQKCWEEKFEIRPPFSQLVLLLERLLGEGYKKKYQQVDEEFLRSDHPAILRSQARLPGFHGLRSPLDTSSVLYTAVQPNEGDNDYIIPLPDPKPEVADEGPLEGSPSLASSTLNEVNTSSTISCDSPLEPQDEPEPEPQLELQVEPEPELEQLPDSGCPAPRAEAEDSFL

For orientation: IC50 means the concentration needed to halve the response being measured. Take `Cc1ncc(NC(=O)CN2CCOC[C@@H]2C)cc1NC(=O)c1cnn2cc(-c3cnn(C)c3)sc12` [Example 74, (S)-2-(1-methyl-1H-pyrazol-4-yl)-N-(2-methyl-5-(2-(3-methylmorpholino)acetamido)pyridin-3-yl)pyrazolo[5,1-b]thiazole-7-carboxamide]: the IC50 in assay [1] was 24.2 nM; on VEGFR2, unphosphorylated, above 7500 nM; in assay [2], 1 nM.

In the case of `Cc1ncc(NC(=O)CN2CC3CC(C2)O3)cc1NC(=O)c1cnn2cc(-c3cnn(C)c3)sc12` [Example 45, N-(5-(2-(6-oxa-3-azabicyclo[3.1.1]heptan-3-yl)acetamido)-2-methylpyridin-3-yl)-2-(1-methyl-1H-pyrazol-4-yl)pyrazolo[5,1-b]thiazole-7-carboxamide], the IC50 in assay [1] is 31 nM; at VEGFR2, unphosphorylated, above 7500 nM; in assay [2] it was 1 nM.

As to `Cc1ncc(NC(=O)CN2CCC[C@@H]2C)cc1NC(=O)c1cnn2cc(-c3cnn(CCO)c3)sc12` [Example 84, (S)-2-(1-(2-hydroxyethyl)-1H-pyrazol-4-yl)-N-(2-methyl-5-(2-(2-methylpyrrolidin-1-yl)acetamido)pyridin-3-yl)pyrazolo[5,1-b]thiazole-7-carboxamide], the IC50 in assay [1] is 10.9 nM; against VEGFR2, unphosphorylated, above 7500 nM; in assay [2], 0.9 nM.

Take `Cc1ncc(NC(=O)CN2CCC2(C)C)cc1NC(=O)c1cnn2cc(-c3cnn(C)c3)sc12` [Example 82, N-(5-(2-(2,2-dimethylazetidin-1-yl)acetamido)-2-methylpyridin-3-yl)-2-(1-methyl-1H-pyrazol-4-yl)pyrazolo[5,1-b]thiazole-7-carboxamide]: the IC50 in assay [1] was 24.3 nM; against VEGFR2, unphosphorylated, above 7500 nM; in assay [2] it was 1.6 nM.

In the case of `CC[C@H]1COCCN1CC(=O)Nc1cnc(C)c(NC(=O)c2cnn3cc(-c4cnn(C)c4)sc23)c1` [Example 70, (S)—N-(5-(2-(3-ethylmorpholino)acetamido)-2-methylpyridin-3-yl)-2-(1-methyl-1H-pyrazol-4-yl)pyrazolo[5,1-b]thiazole-7-carboxamide], the IC50 in assay [1] is 2.9 nM; against VEGFR2, unphosphorylated it was above 7500 nM; in assay [2] it was 0.2 nM.

Consider `Cc1ncc(NC(=O)CN2CCO[C@H](C)C2)cc1NC(=O)c1cnn2cc(-c3cnn(C)c3)sc12` [Example 54, (R)-2-(1-methyl-1H-pyrazol-4-yl)-N-(2-methyl-5-(2-(2-methylmorpholino)acetamido)pyridin-3-yl)pyrazolo[5,1-b]thiazole-7-carboxamide], for which the IC50 in assay [1] was 12.8 nM; against VEGFR2, unphosphorylated it was above 7500 nM; in assay [2], 0.5 nM.

On to `Cc1ncc(NC(=O)CN2CCO[C@@H](C)C2)cc1NC(=O)c1cnn2cc(-c3cnn(C)c3)sc12` [Example 64, (S)-2-(1-methyl-1H-pyrazol-4-yl)-N-(2-methyl-5-(2-(2-methylmorpholino)acetamido)pyridin-3-yl)pyrazolo[5,1-b]thiazole-7-carboxamide], for which the IC50 in assay [1] is 6.3 nM; against VEGFR2, unphosphorylated, above 7500 nM; in assay [2] it was 0.4 nM.

Regarding `Cc1ncc(NC(=O)CN2C[C@@H](C)O[C@@H](C)C2)cc1NC(=O)c1cnn2cc(-c3cnn(C)c3)sc12` [Example 53, N-(5-(2-((2R,6S)-2,6-dimethylmorpholino)acetamido)-2-methylpyridin-3-yl)-2-(1-methyl-1H-pyrazol-4-yl)pyrazolo[5,1-b]thiazole-7-carboxamide], the IC50 in assay [1] is 2.7 nM; at VEGFR2, unphosphorylated it was above 7500 nM; in assay [2] it was 0.3 nM.

For `Cc1ncc(NC(=O)CN2[C@H](C)COC[C@H]2C)cc1NC(=O)c1cnn2cc(-c3cnn(C)c3)sc12` [Example 51, N-(5-(2-((3R,5R)-3,5-dimethylmorpholino)acetamido)-2-methylpyridin-3-yl)-2-(1-methyl-1H-pyrazol-4-yl)pyrazolo[5,1-b]thiazole-7-carboxamide], the IC50 in assay [1] is 4.8 nM; on VEGFR2, unphosphorylated it was above 7500 nM; in assay [2], 0.4 nM.
